Data reported in PubChem BioAssay AID686957 (The Scripps Research Institute Molecular Screening Center, 2013).
Active and inactive are the calls of the source. The rule behind the calls is not given here.

The molecules below were run against T-cell receptor (TCR)-CD3 interaction, human (TCR alpha chain TRAV4) (assay: IC50 for blocking TCR-CD3 binding – biochemical, fluorescence, TAMRA-labeled TCR probe, dose response (AID 686957)).

SMILES	IC50
Cc1nc2ccccc2n1CC(=O)c1ccc(O)c(O)c1	> 94 µM (inactive)
O=C(N/N=C/c1cc(Br)cc(Cl)c1O)c1ccc2c(c1)OCO2	> 94.1 µM (inactive)
O=C(NNC(=O)C1CCN(S(=O)(=O)c2ccccc2)CC1)c1ccccc1O	> 94.1 µM (inactive)
O=C(CCCN1C(=O)/C(=C/c2cccs2)SC1=S)NNC(=O)c1ccccc1O	> 94.1 µM (inactive)
CCOc1ccc(C(=O)CCC(=O)NNC(=O)c2ccccc2O)cc1	> 94.1 µM (inactive)
CNC(=S)NNC(=O)c1cccn(Cc2ccccc2)c1=O	> 94.2 µM (inactive)
Cc1cc(C)c(C)c(S(=O)(=O)N2CCC(C(=O)NNC(=O)c3ccccc3O)CC2)c1C	> 94.1 µM (inactive)
Cc1ccc(OCC(=O)c2c(N)n(C)c(=O)n(C)c2=O)c([N+](=O)[O-])n1	inactive
C/C(=N\NC(=O)c1nnn(-c2nonc2N)c1CN(C)c1ccccc1)c1ccccc1O	> 94.1 µM (inactive)
COc1cccc(OCC(=O)NNC(=O)c2ccc3ccccc3c2O)c1	> 94.1 µM (inactive)
O=C(CCN1CCN(c2ccccc2)CC1)N/N=C/c1ccc(O)c(O)c1O	> 94.1 µM (inactive)
O=C(CP(=O)(c1ccccc1)c1ccccc1)N/N=C/c1cc(Br)cc(Br)c1O	> 94.2 µM (inactive)
O=C(NNC(=O)c1ccc2ccccc2c1O)Nc1ccc(F)cc1	> 94.1 µM (inactive)
COc1ccc(C(=O)NNC(=S)NC(=O)c2ccc(Br)o2)cc1OC	> 94.1 µM (inactive)
NS(=O)(=O)c1ccc(NC(=O)c2cccc(N3C(=O)c4ccccc4C3=O)c2)cc1	> 94.1 µM (inactive)
O=C(CSc1nc2ccccc2s1)N/N=C/c1cc([N+](=O)[O-])ccc1O	> 94.1 µM (inactive)
Cc1ccccc1C(=O)Nc1cccc(C(=O)N/N=C/c2cc(Cl)cc([N+](=O)[O-])c2O)c1	> 94.1 µM (inactive)
O=C(N/N=C/c1sc(=O)[nH]c1-[n+]1ccc2ccccc2c1)c1ccccc1[O-]	> 94.1 µM (inactive)
CCN(CC(=O)Nc1c(F)cccc1F)C(=O)/C=C/c1ccc2ccccc2n1	> 94.1 µM (inactive)
Cc1ccc(O)c(-c2cc(C(=O)Nc3ccc(S(=O)(=O)Nc4nccc(C)n4)cc3)[nH]n2)c1	> 94.1 µM (inactive)
COc1ccccc1C(=O)NNC(=O)c1ccc(NC(=O)CC(C)C)cc1	> 94.1 µM (inactive)
COc1ccc(NC(=O)NNC(=O)c2cc3ccccc3cc2O)cc1	> 94.1 µM (inactive)
O=c1c(O)cccc2cc(O)c(O)c(O)c12	4.39 µM
O=C(NNC(=O)c1ccc2ccccc2c1O)c1ccccc1Cl	> 94.1 µM (inactive)

SMILES	IC50
CCOC(=O)Cn1c(=NC(=O)c2cc(-c3cccs3)nc3ccccc23)sc2cc(S(N)(=O)=O)ccc21	> 94.1 µM (inactive)
O=C(NNC(=S)NC1CCCCC1)c1ccccc1O	> 94.1 µM (inactive)
O=C(N/N=C/c1cc(Cl)cc([N+](=O)[O-])c1O)c1cccc(S(=O)(=O)N2CCOCC2)c1	> 94.1 µM (inactive)
COc1ccccc1C(=O)NNC(=O)c1ccc2ccccc2c1O	> 94.2 µM (inactive)
O=c1cc(-c2ccc(O)c(O)c2)oc2c1ccc1ccccc12	6.25 µM
Cc1ccc(-c2[nH]c3cc(C(=O)NCCCn4ccnc4)ccc3c(=O)c2O)cc1	inactive
O=c1c2ccccc2c(C=Nc2ccccc2O)c(O)n1-c1nccs1	> 94.1 µM (inactive)
COc1ccc(CC(=O)N/N=C/c2cc([N+](=O)[O-])cc(Br)c2O)cc1	> 94.1 µM (inactive)
O=C1C=C(O)c2c(O)cc(O)c(O)c2C1=O	> 94.1 µM (inactive)
O=C(N/N=C/c1c(O)n(Cc2ccco2)c(=O)[nH]c1=O)c1ccccc1	> 94.2 µM (inactive)
O=[N+]([O-])c1cc(Cl)cc(/C=N/NC(=S)Nc2ccc(S(=O)(=O)N3CCOCC3)cc2)c1O	> 94.1 µM (inactive)
C=CCn1c(O)c(N=NC(=O)CNC(=O)/C=C/c2ccco2)c2ccccc21	> 94.1 µM (inactive)
Nc1nnc(CC(=O)N/N=C\c2cc([N+](=O)[O-])ccc2O)s1	> 94.1 µM (inactive)
CC(=O)c1cccc(NC(=O)C(OC(=O)c2cccc(S(=O)(=O)N(C)c3ccccc3)c2)c2ccccc2)c1 (stereo not drawn)	inactive
Nc1c(C(=O)NCC2CCCO2)sc2nc3c(c(-c4ccco4)c12)CC/C3=C\c1ccco1 (stereo not drawn)	inactive
Cc1cc(C(=O)N/N=C/c2cc(Cl)cc([N+](=O)[O-])c2O)c2ccccc2n1	> 94.1 µM (inactive)
N#C/C(=C\c1ccc(O)c(O)c1)C(=O)Nc1cccc2ncccc12	8.85 µM
Cc1cccc(C(=O)NCC(=O)NNC(=O)c2ccccc2O)c1	> 94 µM (inactive)
CCc1ccccc1NC(=O)NNC(=O)c1ccc2ccccc2c1O	> 94.1 µM (inactive)
COC(=O)CC1(C(=O)OC)Nc2cc(Cl)c(Cl)cc2S(=O)(=O)N1O (stereo not drawn)	> 94.2 µM (inactive)
O=c1cc(-c2ccc(O)cc2)oc2c(O)c(O)c(O)c(O)c12	> 94.2 µM (inactive)
Cc1ccc(C(=O)NNC(=O)c2ccc3ccccc3c2O)cc1	> 94 µM (inactive)
O=C(NC(=S)NNC(=O)c1ccccc1O)c1cccnc1	> 94.1 µM (inactive)
O=[N+]([O-])c1cc(Br)c(O)c(/C=N/Nc2nnnn2-c2cccc3ccccc23)c1	> 94.1 µM (inactive)

SMILES	IC50
O=C(CN1C(=O)S/C(=C\c2ccccc2)C1=O)NNC(=O)c1ccccc1O	> 94.1 µM (inactive)
O=C(CCN1C(=O)/C(=C\c2ccccc2)SC1=S)NNC(=O)c1ccccc1O	> 94.1 µM (inactive)
O=C(NNC(=O)c1ccccc1O)c1ccccc1O	> 93.9 µM (inactive)
O=C(CNC(=O)c1cccc(Br)c1)N/N=C/c1cc(Br)cc(Br)c1O	> 94.1 µM (inactive)
O=C(N/N=C/c1cc([N+](=O)[O-])ccc1O)c1cccc(N2CCCC2=O)c1	> 94.1 µM (inactive)
CCOC(=O)c1c(C)[nH]c(C(=O)N/N=C/c2cc([N+](=O)[O-])ccc2O)c1C	> 94.1 µM (inactive)
O=C(O)c1ccccc1NS(=O)(=O)c1ccc(N/N=C/c2ccc(O)c(O)c2)c([N+](=O)[O-])c1	inactive
Cc1nc(S/C(=C/c2ccc(OCc3ccc(C(=O)O)cc3)cc2)C(=O)O)n[nH]1	> 94.1 µM (inactive)
O=C(CNC(=O)c1ccccc1Br)N/N=C\c1cc([N+](=O)[O-])cc(Br)c1O	> 94.1 µM (inactive)
Cc1ccc(-n2c(O)c(/C=N/NC(=O)C3COc4ccccc4O3)c3ccccc3c2=O)cc1 (stereo not drawn)	> 94.1 µM (inactive)
C/C(=N\NC(=O)c1c(C)nc2ccccn12)c1ccc(O)cc1O	> 94.1 µM (inactive)
O=C(CSc1nc2ccccc2c(=O)n1-c1ccc(F)c(Cl)c1)Nc1cccc(S(=O)(=O)N2CCOCC2)c1	> 10.5 µM (inactive)
COC(=O)Cn1c(=NC(=O)c2cc(-c3cccs3)nc3ccccc23)sc2cc(S(N)(=O)=O)ccc21	> 10.5 µM (inactive)
CCCCCCn1c(=O)c(C(=O)Nc2ncccc2O)c(O)c2ccccc21	> 94.2 µM (inactive)
O=C(CSc1nnc(-c2ccccc2O)n1Cc1ccccc1)NNC(=O)c1ccccc1O	> 94.1 µM (inactive)
O=C(NNC(=O)c1ccc2ccccc2c1O)c1cccs1	> 94.1 µM (inactive)
C/C(=N/NC(=O)c1cc(O)c(O)c(O)c1)c1ccc([N+](=O)[O-])cc1	> 94.1 µM (inactive)
O=C1C=C(NCCc2cc(Br)c(O)c(Br)c2)C(=O)c2ncccc21	inactive
Cn1c(O)c(/C=N/NC(=O)c2cc3ccccc3cc2O)c2ccccc21	> 94.1 µM (inactive)
COc1cccc(/C=C2/SC(=S)N(CC(=O)NNC(=O)c3ccccc3O)C2=O)c1	> 94.1 µM (inactive)
Oc1ccc(/C=N/N=C/c2ccc(O)c(O)c2)cc1O	2.24 µM
O=C(N/N=C/c1cccc([N+](=O)[O-])c1O)c1cccs1	> 94.1 µM (inactive)
Cc1cc(C)c(-c2cc(NC(=O)COC(=O)c3ccc(NC(=O)CC#N)cc3)n(-c3ccccc3)n2)cc1C	> 94.1 µM (inactive)
COC(=O)C1CCN(C(=O)c2cc(-c3ccco3)nc3ccccc23)CC1	> 94.1 µM (inactive)

SMILES	IC50
NC(=O)CCC1NC(=S)N(Cc2ccccc2)C1=O (stereo not drawn)	> 94.1 µM (inactive)
COc1cc(O)c(/C=N/NC(=O)c2ccncc2)c(OC)c1[N+](=O)[O-]	> 94.1 µM (inactive)
COc1ccc(NC(=O)CSc2sc3c(O)cc(=O)[nH]c3c2C#N)c(OC)c1	> 94.1 µM (inactive)
CNC(=S)N/N=C/c1cc(Br)cc(Br)c1O	> 94.1 µM (inactive)
O=c1c2c(-c3ccc(Cl)cc3)csc2ncn1/N=C/c1cccc([N+](=O)[O-])c1O	> 94.1 µM (inactive)
CCOC(=O)C1=C(CC)Nc2ccccc2N=C1NC(=O)Nc1ccc(Cl)c(Cl)c1	inactive
CC1=NN(C(=O)c2ccccc2)C(O)(c2ccc(Br)cc2)C1 (stereo not drawn)	> 94.2 µM (inactive)
COc1cc(/C=N/NC(=O)COc2ccc(Cl)cc2)ccc1OS(=O)(=O)c1ccc(C)cc1	inactive
O=C(CCl)NNC(=O)c1c(O)c2ccccc2[nH]c1=O	> 94 µM (inactive)
O=C(CCNC(=O)c1ccc(Br)cc1)NNC(=O)c1ccccc1O	> 94.1 µM (inactive)
O=C(N/N=C/c1ccc(O)c(O)c1)N/N=C/c1ccc(O)c(O)c1	1.03 µM
O=c1c2ccccc2nc(COc2ccccc2)n1/N=C/c1cc([N+](=O)[O-])ccc1O	> 94.1 µM (inactive)
Cc1onc(-c2ccccc2)c1C(=O)NN=Cc1cc(Cl)cc(Cl)c1O	> 94 µM (inactive)
COc1ccccc1NC(=O)NNC(=O)c1cc2ccccc2cc1O	> 94.1 µM (inactive)
CNC(=S)NNC(=O)c1cccn(Cc2cccc(C(F)(F)F)c2)c1=O	> 94.1 µM (inactive)
Nc1ccc([N+](=O)[O-])cc1C(=O)NNC(=O)c1ccco1	> 94.1 µM (inactive)
c1coc(-c2ccc3nncn3c2)c1	inactive
O=C(NNC(=S)NC(=O)c1cccc([N+](=O)[O-])c1)c1ccc(O)cc1	> 94 µM (inactive)
O=Nc1[nH]c(=O)c(/C=C(\O)c2ccccc2)nc1NO	> 94.2 µM (inactive)
C=CCNC(=S)NNC(=O)c1cccn(Cc2cccc(Cl)c2)c1=O	> 94.1 µM (inactive)
O=c1c(CO)cc(CO)cc(CO)c1O	inactive
